Measurements from patent US12697325B2 (TENNOR THERAPEUTICS (SUZHOU) LIMITED, priority 2021, dated 2026).
Like-named read-outs stand apart in the source and are kept apart here.

How the values were obtained:
[1] = tested on: Acinetobacter baumannii strains; experiment: Minimum inhibitory concentration (CLSI M07), Example 2, 20 strains; type: cell-based; details: for MIC: read-out: MIC
Experimental: The minimum inhibitory concentration (MIC) was determined in accordance with the requirements of the Clinical and Laboratory Standards Institute (CLSI) M07 (for aerobic bacteria).
3.1 The compounds were diluted with DMSO up to 100 times of the highest concentration tested.
The steps of manual dilution are as follows (example): firstly, the compound or antibiotic was diluted to 100 times of the maximum final concentration tested, then 60 μL of compound mother liquor was added to the first column of the 96-well plate, and 30 μL of DMSO was added to each well in the second to the 12th column; 30 μL of the liquid was transferred from the first column to the second column. After being pipetted up and down to even, 30 μL was transferred to the third column, and was diluted in sequence at a 2-fold gradient for a total of 10 times; then 30 μL was removed from each well in the 11th column, then a compound solution diluted at 2-fold gradient was obtained and 1 μL was transferred to a 96-well test plate.
Aerobic bacteria: the strains were inoculated on MHA one day in advance and incubated overnight at 37° C. On the day of the assay, 5-6 single colonies were picked and suspended evenly in saline, and the bacterial concentration was adjusted to the turbidity of 0.5 McFarland standard (concentration is about 1×10^8 CFU/mL). The bacterial suspension was diluted at 200-fold with the corresponding liquid culture medium (Table 1), i.e., the bacterial concentration was ~5×10^5 CFU/ml, and then 100 μL of the liquid was transferred to a 96-well round bottom plate (the 96-well plate with compound prepared in 4.2, Echo method) to obtain the test plate. If the compound was manually diluted, then 99 μL of the solution was transferred into a 96-well round bottom plate. The 96-well round bottom plate obtained above was placed into an incubator at 37° C. and 85% humidity to incubate for 20 h.

[2] = Pharmacokinetics in plasma and bronchoalveolar lavage fluid of female CD-1 mice; type: in vivo; details: mouse, female CD-1 mice
Experimental: An appropriate amount of the test drug was accurately weighed and mixed with the appropriate volume of vehicle (5% DMSO+0.5% Tween 80 in normal saline) to obtain a clear solution for the test in Table 9. The formulation solution for injection was prepared to sterile filtration through a 0.22 μm filter prior to administration. The mice were dosed with the drug within 30 min after the formulated solution for injection was prepared. A 1.5 mL of the formulation solution for injection was transferred into a polypropylene microcentrifuge tube for dose verification by LC/UV or LC-MS/MS.
All blood samples were transferred to pre-frozen EDTA-K2 tubes and placed on wet ice until centrifugation. […]
Plasma: approximately 100 μL of blood sample was transferred into pre-cooled commercial EDTA-K2 tubes and placed on wet ice until centrifugation. After the blood samples were centrifuged at approximately 4° C. and 3, 200 g for 10 min, plasma was collected and transferred to pre-labeled 96-well plates or polypropylene tubes, flash frozen on dry ice, and stored at ≤−60° C. until the analysis by LC-MS/MS.
Serum: approximately 100 μL of blood sample was transferred into a tube without anticoagulant and placed on wet ice for approximately 30 min and centrifuged at 4° C. and 3,000 g for 10 min, and the serum was collected and transferred into pre-labeled PP tubes placed on wet ice. After the completion of all the collections, serum samples were stored at −60° C. until being sent to the animal experimental team to determine urea concentration.
Bronchoalveolar lavage fluid (BALF): pre-cooled tracheo-alveolar lavage fluid was injected into the trachea or predefined bronchi. After a full expansion of the lung tissue, the lavage fluid was slowly drawn out with a syringe 30 s later. The lung was lavaged three times. During the last lavage, the lung tissue was gently squeezed to restore the fluid. To prevent contamination of other lung tissues, the corresponding bronchi were ligated. Both lungs of the mice were perfused with 0.8 mL.
[…] Approximately 200 μL of the BALF samples were transferred into a polypropylene tube, rapidly frozen on dry ice, maintained at ≤−60° C., and sent to the animal experimental team to determine urea concentration. The remaining BALF samples (approximately 600 μL) were rapidly frozen on dry ice and maintained at ≤−60° C. until being submitted for drug concentration analysis by LC-MS/MS.

Compound: CC1(C)[C@H](C(=O)[O][Na+])N2C(=O)C[C@H]2S1(=O)=O [Sulbactam sodium, sulbactam sodium]
- MIC ([1]; Acinetobacter baumannii, ATCC17978, strain ATCC 17978): 8 µg/mL
- MIC ([1]; Acinetobacter baumannii, ATCC19606, strain ATCC 19606): 2 µg/mL
- MIC ([1]; Acinetobacter baumannii, ATCCBAA1605, strain ATCC-BAA-1605): 32 µg/mL
- MIC ([1]; Acinetobacter baumannii, ATCCBAA1789, strain ATCC-BAA-1789): 4 µg/mL
- MIC ([1]; Acinetobacter baumannii, ATCCBAA1790, strain ATCC-BAA-1790): 16 µg/mL
- MIC ([1]; Acinetobacter baumannii, ATCCBAA1791, strain ATCC-BAA-1791): 8 µg/mL
- MIC ([1]; Acinetobacter baumannii, ATCCBAA1792, strain ATCC-BAA-1792): 32 µg/mL
- MIC ([1]; Acinetobacter baumannii, ATCCBAA1793, strain ATCC-BAA-1793): 32 µg/mL
- MIC ([1]; Acinetobacter baumannii, ATCCBAA1794, strain ATCC-BAA-1794): 8 µg/mL
- MIC ([1]; Acinetobacter baumannii, ATCCBAA1795, strain ATCC-BAA-1795): 64 µg/mL
- MIC ([1]; Acinetobacter baumannii, ATCCBAA1796, strain ATCC-BAA-1796): 16 µg/mL
- MIC ([1]; Acinetobacter baumannii, ATCCBAA1797, strain ATCC-BAA-1797): 8 µg/mL
- MIC ([1]; Acinetobacter baumannii, ATCCBAA1798, strain ATCC-BAA-1798): 16 µg/mL
- MIC ([1]; Acinetobacter baumannii, ATCCBAA1799, strain ATCC-BAA-1799): 64 µg/mL
- MIC ([1]; Acinetobacter baumannii, ATCCBAA1800, strain ATCC-BAA-1800): 32 µg/mL
- MIC ([1]; Acinetobacter baumannii, strain ARLG-1791): 32 µg/mL
- MIC ([1]; Acinetobacter baumannii, strain ARLG-1809): 32 µg/mL
- MIC ([1]; Acinetobacter baumannii, strain ARLG-1852): 16 µg/mL
- MIC ([1]; Acinetobacter baumannii, strain ARLG-1853): 32 µg/mL
- MIC ([1]; Acinetobacter baumannii, strain ARLG-1881): 128 µg/mL
- MIC50 ([1]; Acinetobacter baumannii, Example 2, 20 strains, read-out: MIC50): 32 µg/mL
- MIC90 ([1]; Acinetobacter baumannii, Example 2, 20 strains, read-out: MIC90): 64 µg/mL
- MIC range ([1]; Example 2, 20 strains): 2 to 128 µg/mL
- MIC of this strain BAA-1795 (component in the combination) ([1]; strain BAA-1795): 8 µg/mL
- MIC of the strain BAA-1795 (component in the combination) ([1]; strain BAA-1795, sulbactam/avibactam 4:1, concentration of the named component): 8 µg/mL
- Kp ([2]; BALF/plasma, intravenous, 150 mg/kg, BALF column, read-out: AUC Ratio): 0.0248
- AUC(0-t) ([2]; bronchoalveolar lavage fluid (BALF), intravenous dripping 150 mg/kg, BALF, read-out: AUC0-last, BALF): 1310 ng·h/mL
- Cmax ([2]; bronchoalveolar lavage fluid (BALF), intravenous dripping 150 mg/kg, BALF, read-out: Cmax, mean BALF concentration): 617 ng/mL
- MRT last ([2]; bronchoalveolar lavage fluid (BALF), intravenous dripping 150 mg/kg, BALF, read-out: MRT0-last, BALF): 103 min
- half-life ([2]; bronchoalveolar lavage fluid (BALF), intravenous dripping 150 mg/kg, BALF, read-out: T1/2, BALF (converted)): 43.5 min
- Tmax ([2]; bronchoalveolar lavage fluid (BALF), intravenous dripping 150 mg/kg, BALF, read-out: Tmax, BALF): 180 min
- clearance ([2]; intravenous dripping 150 mg/kg, plasma): 47.2 mL/min/kg
- AUC(0-t) ([2]; intravenous dripping 150 mg/kg, plasma, read-out: AUC0-last, plasma): 52900 ng·h/mL
- Cmax ([2]; intravenous dripping 150 mg/kg, plasma, read-out: Cmax, mean plasma concentration): 19600 ng/mL
- MRT last ([2]; intravenous dripping 150 mg/kg, plasma, read-out: MRT0-last, plasma): 26.4 min
- half-life ([2]; intravenous dripping 150 mg/kg, plasma, read-out: T1/2, plasma (converted)): 52.4 min
- Tmax ([2]; intravenous dripping 150 mg/kg, plasma, read-out: Tmax, plasma): 60 min
- Vd ([2]; intravenous dripping 150 mg/kg, plasma, read-out: Vdss): 1.26 L/kg
